Data as given in patent US6613506B1, “Compositions and methods for inhibiting human immunodeficiency virus infection by down-regulating human cellular genes” (Subsidiary No. 3, Inc., priority 2000, dated 2003).

What was measured:
HIV-1SF33 = assay: Productive infection of activated human PBLs with HIV-1SF33, flow cytometry of CD3+ T cells; assay type: cell-based; details: for % CD4^+ in population / % p24+ cells among CD4+ T cells: HIV +, day 6; for % CD4^+ in population: CD3+ T cells of human PBLs; for % p24+ cells among CD4+ T cells: human PBLs
Procedure: (§1) Human peripheral blood leukocytes (PBLs) were isolated using Ficoll-Hypaque density gradient separation. Cells were washed twice and resuspended in RPMI+10% FBS+2% human AB serum+penicillin/streptomycin/glutamine+100 Units/mL of IL-2 at a concentration of 0.5×10^6 cells/mL. PBLs were then activated with phytohemagglutinin at 0.5 μg/mL and placed in a humidified incubator at 37° C./5% CO2. After two days of activation, 10^6 cells were infected with HIV-1SF33 at TCID50 of 1000, in the presence of various concentrations of mofarotene: 0 μM, 1 μM, 0.5 μM, 0.1 μM, and 0.05 μM. A separate set of uninfected samples under identical concentrations of mofarotene were also maintained as controls. The samples were analyzed by flow cytometry at day 4 and day 6 post infection. The cells were gated for CD3 expression (for T cells). Then the expression of CD4 and viral p24 and CD4 was examined by bivariate dot plot.
In order to test the ability of a NADH dehydrogenase inhibitor to prevent productive infection of T cells by HIV, human PBLs were isolated and infected with HIVSF33 in the presence of various concentrations of mofarotene.

[1] = system: latent HIV provirus in OM10.1 cells; assay: Induction of latent HIV provirus by TNF-α in OM10.1 cells (CD4 retention, p24); assay type: cell-based, HIV-1
Procedure: In order to determine p24 expression in HIV-infected cells, the cells were first washed twice with Assay Buffer. About 10^6 cells were suspended in 100 μL Assay Buffer, mixed with 2 mL of Ortho PermeaFix Solution (available from Ortho Diagnostics), and incubated for 40 min. at room temperature. After centrifugation at 1200 rpm for 4 min. at 4EC, the cells were resuspended in 2 mL Wash Buffer (500 mL PBS, 25 mL fetal bovine serum, 1.5% bovine serum albumin and 0.0055% EDTA) for 10 min. at room temperature. After centrifugation, the cells were resuspended in 50 ΦL Wash Buffer and mixed with 1:500 dilution of an IgG2a antibody for 20 min. at 4EC, followed by incubation with 5-10 ΦL of anti-p24 antibody (KC57-FITC, available from Coulter) for 30 min. at 4EC. The cells were then washed twice with Wash Buffer and analyzed by flow cytometry.
One strategy selected for GSEs which suppressed productive infection of cells by HIV. The second strategy selected for GSEs which suppressed induction of the latent provirus in OM10.1 cells. When OM10.1 cells were treated with TNF-α and stained with an antibody specific for the cell surface molecule CD4, a rapid loss of CD4 expression was observed (FIG. 1). In contrast, the vast majority of the uninduced OM10.1 cells retained CD4 expression. It is believed that activation of the latent virus in OM10.1 cells by TNF-α leads to the production of viral protein gp120, which binds to cytoplasmic CD4, thereby preventing its translocation to the cell surface. A diminution of CD4^+ OM10.1 cells also correlates with an increased production of viral protein p24 in the cells following TNF-α induction.
OM10.1 cells were cultured in RPMI 1640 glucose-free media prior to and during incubation with NADH dehydrogenase inhibitors and TNF-á induction. The inhibitors were added to the cells followed by TNF-á induction 1-2 hours later. The expression of CD4 by the cells was assessed by anti-CD4 antibody staining and flow cytometry after 24 hour incubation at 37° C.

OM10.1 cells = assay type: cell-based; details: human, 24 h, 100 nM
[2] = system: human peripheral blood leukocytes (PBLs); assay: Uninfected human PBL controls with mofarotene alone (CD4, p24, CD3); assay type: cell-based; details: for % CD4^+ in population / % p24^− in CD4^− T population: HIV −; for % CD4^+ in population: CD3+ T cells of human PBLs; for % p24^− in CD4^− T population: human PBLs
Procedure: as §1

Question: How did the “% CD4^+ in population” value (HIV-1SF33; mofarotene 0.05 μM) turn out when `C/C(=C\c1ccc(OCCN2CCOCC2)cc1)c1ccc2c(c1)C(C)(C)CCC2(C)C` [mofarotene, Mofarotene] was run?
Answer: Its value is 18%.

Question: What about the “% p24+ cells among CD4+ T cells” value (HIV-1SF33; mofarotene 0.05 μM) of the same molecule?
Answer: Its value is 20.5%.

Question: And the “% CD4^+ in population” value (HIV-1SF33; mofarotene 0.1 μM)?
Answer: The value was 28%.

Question: And the “% p24+ cells among CD4+ T cells” value (HIV-1SF33; mofarotene 0.1 μM)?
Answer: Its value is 11.4%.

Question: And the “% CD4^+ in population” value (HIV-1SF33; mofarotene 0.5 μM)?
Answer: Its value is 24%.

Question: What about the “% p24+ cells among CD4+ T cells” value (HIV-1SF33; mofarotene 0.5 μM) of the same molecule?
Answer: Its value is 12.5%.

Question: What about the “% CD4^+ in population” value (HIV-1SF33; mofarotene 1.0 μM) of the same molecule?
Answer: Its value is 25%.

Question: And the “% p24+ cells among CD4+ T cells” value (HIV-1SF33; mofarotene 1.0 μM)?
Answer: Its value is 10%.

Question: What about the “% p24+ cells among CD4+ T cells” value (HIV-1SF33; mofarotene 1.0 μM, listed as Mofarotene) of the same molecule?
Answer: Its value is 10%.

Question: What about the “difference between HIV-infected PBLs with or without mofarotene” value (HIV-1SF33; day 4 post-infection) of the same molecule?
Answer: Its value is “little detectable difference”.

Question: And the “depletion of CD4^+ T cells by HIV infection” value (HIV-1SF33; day 6, 1 μM mofarotene)?
Answer: The value was “inhibited the depletion of CD4^+ T cells by HIV infection”.

Question: What about the “level of protection (percentage of p24+ CD4+ T cells and of CD4+ cells in CD3+ T cells) versus concentration” value (HIV-1SF33; day 6, 1 to 0.05 μM) of the same molecule?
Answer: The value was “diminished with decreased concentrations of mofarotene”.

Question: What about the “cells that retained CD4 expression” value ([1]; 100 nM of mofarotene, TNF-α-induced OM10.1 cells) of the same molecule?
Answer: Its value is 80%.

Question: And the “inhibition of induction of latent HIV provirus (retention of CD4 expression)” value ([1]; TNF-α-induced OM10.1 cells, 24 hour incubation, FIG. 5 / FIG. 6)?
Answer: The value was “inhibited HIV-1 induction at even lower concentrations”.

Question: And the “intracellular p24 levels” value ([1]; treated cells compared with untreated controls)?
Answer: The value was “suppressed intracellular p24 levels”.

Question: And the “cells that remained viable” value (OM10.1 cells)?
Answer: Its value is “greater than 80%”.

Question: What about the “% CD4^+ in population” value ([2]; mofarotene 0.05 μM, day 6) of the same molecule?
Answer: Its value is 33%.

Question: What about the “% p24^− in CD4^− T population” value ([2]; mofarotene 0.05 μM, day 6) of the same molecule?
Answer: The value was 0%.

Question: What about the “% CD4^+ in population” value ([2]; mofarotene 0.1 μM, day 6) of the same molecule?
Answer: The value was 34%.

Question: What about the “% p24^− in CD4^− T population” value ([2]; mofarotene 0.1 μM, day 6) of the same molecule?
Answer: Its value is 0%.

Question: What about the “% CD4^+ in population” value ([2]; mofarotene 0.5 μM, day 6) of the same molecule?
Answer: Its value is 34%.

Question: And the “% p24^− in CD4^− T population” value ([2]; mofarotene 0.5 μM, day 6)?
Answer: The value was 0%.

Question: And the “% CD4^+ in population” value ([2]; mofarotene 1.0 μM, day 6)?
Answer: Its value is 36%.

Question: What about the “% p24^− in CD4^− T population” value ([2]; mofarotene 1.0 μM, day 6) of the same molecule?
Answer: Its value is 0%.

Question: What about the “expression level of CD3 on the cell surface” value ([2]; day 4) of the same molecule?
Answer: The value was “nor did it alter the expression level of CD3 on the cell surface”.

Question: What about the “percentage of CD4^+ T cells, mofarotene alone” value ([2]; day 4) of the same molecule?
Answer: Its value is “did not significantly alter the percentage of CD4^+ T cells”.

Question: And the “expression level of CD3 on the cell surface” value ([2]; day 6)?
Answer: The value was “did not alter the expression level of CD3 on the cell surface”.

Question: And the “increase of the percentage of CD4^+ T cells in uninfected samples by mofarotene alone” value ([2]; day 6, uninfected samples)?
Answer: Its value is “up to 4%”.
